# Measurements: patent US6380198B1 (Laboratoire Medidom S.A., priority 1997, dated 2002)
# “And” between values parts separate entries of the source, which are not always exact repeats. Identical values can stand only once.
# What was measured:
# [1] = system: intraocular pressure of rabbits showing normal baseline intraocular pressure; test: Intraocular pressure in rabbits with normal intraocular pressure after topical instillation; assay type: in vivo, rabbit (Vienna Blue, pigmented); settings: 50 μl eye-drops; 0.050% flunarizine, equimolar comparators, 0.5% timolol
# Procedure: The effects of the agent of the invention on the intraocular pressure of rabbits showing normal baseline intraocular pressure were evaluated in comparison with the action of a placebo, and with that of various other calcium channel blocking agents. Female pigmented rabbits of the Vienna Blue strain were used (supplied by Charles River Italiana, of Calco (CO)). The age of the animals at the time of starting the experimentation was 9 weeks, and their weight was 2.0-2.5 kg.
# The choice of a species with pigmented iris is due to the fact that the latter represents a reliable model for the evaluation of possible modifications of the intraocular pressure caused by the products under test. The strain chosen is genetically defined, so as to limit to a minimum the variability of the biological characteristics between one animal and the other.
# The animals were kept in rooms maintained under constant and controlled conditions of temperature and humidity, illuminated for 12 hours a day with artificial light and with continuous renovation of the air. The feed consisted of a standard diet having a constant and known composition, and both feed and water were available ad libitum during the whole period of the test. The rabbits were stabled for 21 days before starting the test, so as to allow a sufficient acclimatation and to suitably evaluate the health conditions of the rabbits. Each experimental group consisted of 4 animals, which were allotted to the treatment groups in a randomised way.
# Each different group of animals received, by instillation in the right conjunctival fornix, 50 μl of the following products:
# The weight concentrations of the various agents under test are chosen so as to correspond to the same molar concentration.
# The pressure in the treated eye was measured by flattening tonometer (TonopenXL®, Mentor), 15 minutes before the instillation of the eyerops (time 0) and then 30, 60, 90, 120, 180 and 240 minutes after. As a local anaesthetic, 5 minutes before carrying out each measurement 25 μl of a commercial ophthalmic solution containing 0.4% oxybuprocaine hydrochloride (Novesine®, Sandoz) was instilled. To carry out the measurement the rabbits were placed in a suitably designed cage, that prevents any sudden movement of the animal under test.
# For each animal and at each of the times listed above the average of three subsequent measurements was calculated and recorded, each one said measurements being made after 1 minute from the previous one. The intraocular pressure values at the various times were compared with the values obtained before the treatment, by means of the Student's “t” test. The comparisons between different groups were made by processing the data by the variance analysis (ANOVA) and, where possible, by the Student's “t” test for the comparison of two different experimental groups. Values of p<0.05 were considered to be statistically significant.
# [2] = system: intraocular pressure of rabbits with ocular hypertension; test: Intraocular pressure in rabbits with ocular hypertension induced by α-chymotrypsin; assay type: in vivo, rabbit (Vienna Blue, pigmented); settings: for Intraocular pressure (mmHg) at the time (min): 30, average ± S.D. / Intraocular pressure (mmHg) at the time (min): 60, average ± S.D. / Intraocular pressure (mmHg) at the time (min): 90, average ± S.D. / Intraocular pressure (mmHg) at the time (min): 120, average ± S.D. / Intraocular pressure (mmHg) at the time (min): 180, average ± S.D. / Intraocular pressure (mmHg) at the time (min): 240, average ± S.D. / Intraocular pressure (mmHg) at the time (min): 0, average ± S.D. / Intraocular pressure (mmHg) at the time (min): 30 / Intraocular pressure (mmHg) at the time (min): 60 / Intraocular pressure (mmHg) at the time (min): 90 / Intraocular pressure (mmHg) at the time (min): 120 / Intraocular pressure (mmHg) at the time (min): 180 / Intraocular pressure (mmHg) at the time (min): 240 / Intraocular pressure (mmHg) at the time (min): 0: Table 4, 50 μl; for Intraocular pressure (mmHg) at the time (min): 30, average ± S.D. / Intraocular pressure (mmHg) at the time (min): 60, average ± S.D. / Intraocular pressure (mmHg) at the time (min): 90, average ± S.D. / Intraocular pressure (mmHg) at the time (min): 120, average ± S.D. / Intraocular pressure (mmHg) at the time (min): 180, average ± S.D. / Intraocular pressure (mmHg) at the time (min): 240, average ± S.D. / Intraocular pressure (mmHg) at the time (min): 0, average ± S.D.: average ± S.D. of 4 rabbits; for Intraocular pressure (mmHg) at the time (min): 30, average ± S.D. / Intraocular pressure (mmHg) at the time (min): 30: 30 min after instillation; for Intraocular pressure (mmHg) at the time (min): 60, average ± S.D. / Intraocular pressure (mmHg) at the time (min): 60: 60 min after instillation; for Intraocular pressure (mmHg) at the time (min): 90, average ± S.D. / Intraocular pressure (mmHg) at the time (min): 90: 90 min after instillation; for Intraocular pressure (mmHg) at the time (min): 120, average ± S.D. / Intraocular pressure (mmHg) at the time (min): 120: 120 min after instillation; for Intraocular pressure (mmHg) at the time (min): 180, average ± S.D. / Intraocular pressure (mmHg) at the time (min): 180: 180 min after instillation; for Intraocular pressure (mmHg) at the time (min): 240, average ± S.D. / Intraocular pressure (mmHg) at the time (min): 240: 240 min after instillation; for Intraocular pressure (mmHg) at the time (min): 0, average ± S.D. / Intraocular pressure (mmHg) at the time (min): 0: time 0 = 15 min before instillation (baseline); for Intraocular pressure (mmHg) at the time (min): 30 / Intraocular pressure (mmHg) at the time (min): 60 / Intraocular pressure (mmHg) at the time (min): 90 / Intraocular pressure (mmHg) at the time (min): 120 / Intraocular pressure (mmHg) at the time (min): 180 / Intraocular pressure (mmHg) at the time (min): 240 / Intraocular pressure (mmHg) at the time (min): 0: individual rabbit, right eye
# Procedure: Rabbits of the same type as those described in the previous section were used for the following tests.
# In the rabbit, the injection of this enzyme in the posterior chamber causes, after one month from the administration, an effect of ocular hypertension.
# At the end of the quarantine period the rabbits were anaesthetised by intramuscular administration of ketamine hydrochloride and xylazine hydrochloride (RBI). The right eye was gently pushed outwardly after instilling 25 μl of Novesine® eye-drops, containing oxybuprocaine as an anaesthetic; then, a sterile solution of σ-chymotrypsin (SIGMA, Milan; 150 units in 100 μl of physiologic sterile solution) was injected in the posterior chamber of the right eye by means of a 30G sterile needle. After the administration of the enzyme, the eye was thoroughly washed with physiologic sterile solution in order to remove any traces of α-chymotrypsin which could damage the ocular tissues. Then, 2 drops of a commercial ophthalmic antibiotic solution (Colbiocin®, SIFI S.p.A., containing chloramphenicol, rolitetracycline, colistin methanesulphonate) were instilled. The treatment was carried out 3 times a day (at 8.00 a.m., 12.00 a.m. and 6.00 p.m.) for one week after the administration of α-chymotrypsin. The rabbits were employed in the tests after one month from the induction of ocular hypertension by means of the enzyme.
# The rabbits, divided also in this case in groups of 4 animals, were treated by instillation of 50 μl of the product under test in the right conjunctival fornix.
# The intraocular pressure in the treated eye was measured, according to the same procedure as in the previous tests, 15 minutes before the instillation of the eye-drops and 30, 60, 90, 120, 180 and 240 minutes after. The values obtained were statistically analysed according to the criteria mentioned in the foregoing.
# The experimental conditions were exactly the same as before.
# [3] = eye-drops with 0.010% flunarizine
# [4] = eye-drops with 0.050% flunarizine
# [5] = eye-drops with 0.100% flunarizine
structure (smiles),measurement,setting,value
Fc1ccc(C(c2ccc(F)cc2)N2CCN(C/C=C/c3ccccc3)CC2)cc1 [flunarizine],"Effect on intraocular pressure in rabbits with normal pressure, in words",[1],better performance in lowering the intraocular pressure than timolol alone
same,"Effect on intraocular pressure in rabbits with ocular hypertension, in words","[2]; 50 μl eye-drops, 0.050% flunarizine, equimolar comparators, 0.5% timolol",effectiveness comparable to or better than that of timolol alone
same,"Intraocular pressure (mmHg) at the time (min): 30, average ± S.D.",[2]; [3],55.0 ± 5.35 mmHg
same,"Intraocular pressure (mmHg) at the time (min): 60, average ± S.D.",[2]; [3],52.7 ± 5.18 mmHg
same,"Intraocular pressure (mmHg) at the time (min): 90, average ± S.D.",[2]; [3],52.5 ± 5.44 mmHg
same,"Intraocular pressure (mmHg) at the time (min): 120, average ± S.D.",[2]; [3],55.7 ± 5.18 mmHg
same,"Intraocular pressure (mmHg) at the time (min): 180, average ± S.D.",[2]; [3],56.5 ± 6.60 mmHg
same,"Intraocular pressure (mmHg) at the time (min): 240, average ± S.D.",[2]; [3],57.5 ± 6.55 mmHg
same,"Intraocular pressure (mmHg) at the time (min): 0, average ± S.D.",[2]; [3],57.5 ± 6.13 mmHg
same,Intraocular pressure (mmHg) at the time (min): 30,[2]; [3],50 mmHg and 58 mmHg and 61 mmHg and 51 mmHg
same,Intraocular pressure (mmHg) at the time (min): 60,[2]; [3],48 mmHg and 55 mmHg and 59 mmHg and 49 mmHg
same,Intraocular pressure (mmHg) at the time (min): 90,[2]; [3],49 mmHg and 53 mmHg and 60 mmHg and 48 mmHg
same,Intraocular pressure (mmHg) at the time (min): 120,[2]; [3],51 mmHg and 58 mmHg and 62 mmHg and 52 mmHg
same,Intraocular pressure (mmHg) at the time (min): 180,[2]; [3],50 mmHg and 60 mmHg and 64 mmHg and 52 mmHg
same,Intraocular pressure (mmHg) at the time (min): 240,[2]; [3],52 mmHg (2×) and 61 mmHg and 65 mmHg
same,Intraocular pressure (mmHg) at the time (min): 0,[2]; [3],52 mmHg and 60 mmHg and 65 mmHg and 53 mmHg
same,"Intraocular pressure (mmHg) at the time (min): 30, average ± S.D.",[2]; [4],39.5 ± 7.32 mmHg
same,"Intraocular pressure (mmHg) at the time (min): 60, average ± S.D.",[2]; [4],37.7 ± 7.27 mmHg
same,"Intraocular pressure (mmHg) at the time (min): 90, average ± S.D.",[2]; [4],40.7 ± 7.63 mmHg
same,"Intraocular pressure (mmHg) at the time (min): 120, average ± S.D.",[2]; [4],42.2 ± 7.36 mmHg
same,"Intraocular pressure (mmHg) at the time (min): 180, average ± S.D.",[2]; [4],47.0 ± 8.28 mmHg
same,"Intraocular pressure (mmHg) at the time (min): 240, average ± S.D.",[2]; [4],47.2 ± 8.18 mmHg
same,"Intraocular pressure (mmHg) at the time (min): 0, average ± S.D.",[2]; [4],47.7 ± 9.03 mmHg
same,Intraocular pressure (mmHg) at the time (min): 30,[2]; [4],47 mmHg and 38 mmHg and 30 mmHg and 43 mmHg
same,Intraocular pressure (mmHg) at the time (min): 60,[2]; [4],45 mmHg and 37 mmHg and 28 mmHg and 41 mmHg
same,Intraocular pressure (mmHg) at the time (min): 90,[2]; [4],50 mmHg and 38 mmHg and 32 mmHg and 43 mmHg
same,Intraocular pressure (mmHg) at the time (min): 120,[2]; [4],51 mmHg and 39 mmHg and 34 mmHg and 45 mmHg
same,Intraocular pressure (mmHg) at the time (min): 180,[2]; [4],56 mmHg and 44 mmHg and 37 mmHg and 51 mmHg
same,Intraocular pressure (mmHg) at the time (min): 240,[2]; [4],56 mmHg and 45 mmHg and 37 mmHg and 51 mmHg
same,Intraocular pressure (mmHg) at the time (min): 0,[2]; [4],57 mmHg and 46 mmHg and 36 mmHg and 52 mmHg
same,"Intraocular pressure (mmHg) at the time (min): 30, average ± S.D.",[2]; [5],42.2 ± 5.31 mmHg
same,"Intraocular pressure (mmHg) at the time (min): 60, average ± S.D.",[2]; [5],39.2 ± 4.57 mmHg
same,"Intraocular pressure (mmHg) at the time (min): 90, average ± S.D.",[2]; [5],43.0 ± 5.71 mmHg
same,"Intraocular pressure (mmHg) at the time (min): 120, average ± S.D.",[2]; [5],45.0 ± 5.71 mmHg
same,"Intraocular pressure (mmHg) at the time (min): 180, average ± S.D.",[2]; [5],48.5 ± 6.24 mmHg
same,"Intraocular pressure (mmHg) at the time (min): 240, average ± S.D.",[2]; [5],49.7 ± 5.73 mmHg
same,"Intraocular pressure (mmHg) at the time (min): 0, average ± S.D.",[2]; [5],49.7 ± 6.6 mmHg
same,Intraocular pressure (mmHg) at the time (min): 30,[2]; [5],48 mmHg and 40 mmHg and 36 mmHg and 45 mmHg
same,Intraocular pressure (mmHg) at the time (min): 60,[2]; [5],45 mmHg and 38 mmHg and 34 mmHg and 40 mmHg
same,Intraocular pressure (mmHg) at the time (min): 90,[2]; [5],49 mmHg and 41 mmHg and 36 mmHg and 46 mmHg
same,Intraocular pressure (mmHg) at the time (min): 120,[2]; [5],51 mmHg and 43 mmHg and 38 mmHg and 48 mmHg
same,Intraocular pressure (mmHg) at the time (min): 180,[2]; [5],56 mmHg and 47 mmHg and 41 mmHg and 50 mmHg
same,Intraocular pressure (mmHg) at the time (min): 240,[2]; [5],57 mmHg and 49 mmHg and 43 mmHg and 50 mmHg
same,Intraocular pressure (mmHg) at the time (min): 0,[2]; [5],58 mmHg and 48 mmHg and 42 mmHg and 51 mmHg
